The record followed here is patent US20240116985A1, “STAPLED PEPTIDES AND METHODS THEREOF” (priority 2020, published 2024).

The IC50 is the concentration that inhibits the measured activity by half.

The target of assay [1] is T1, full-length beta-Catenin (Uniprot ID P35222) (Homo sapiens, UniProt P35222).
T1 construct: 10 nM full-length beta-Catenin (Uniprot ID P35222)
T1 sequence (P35222 1-781): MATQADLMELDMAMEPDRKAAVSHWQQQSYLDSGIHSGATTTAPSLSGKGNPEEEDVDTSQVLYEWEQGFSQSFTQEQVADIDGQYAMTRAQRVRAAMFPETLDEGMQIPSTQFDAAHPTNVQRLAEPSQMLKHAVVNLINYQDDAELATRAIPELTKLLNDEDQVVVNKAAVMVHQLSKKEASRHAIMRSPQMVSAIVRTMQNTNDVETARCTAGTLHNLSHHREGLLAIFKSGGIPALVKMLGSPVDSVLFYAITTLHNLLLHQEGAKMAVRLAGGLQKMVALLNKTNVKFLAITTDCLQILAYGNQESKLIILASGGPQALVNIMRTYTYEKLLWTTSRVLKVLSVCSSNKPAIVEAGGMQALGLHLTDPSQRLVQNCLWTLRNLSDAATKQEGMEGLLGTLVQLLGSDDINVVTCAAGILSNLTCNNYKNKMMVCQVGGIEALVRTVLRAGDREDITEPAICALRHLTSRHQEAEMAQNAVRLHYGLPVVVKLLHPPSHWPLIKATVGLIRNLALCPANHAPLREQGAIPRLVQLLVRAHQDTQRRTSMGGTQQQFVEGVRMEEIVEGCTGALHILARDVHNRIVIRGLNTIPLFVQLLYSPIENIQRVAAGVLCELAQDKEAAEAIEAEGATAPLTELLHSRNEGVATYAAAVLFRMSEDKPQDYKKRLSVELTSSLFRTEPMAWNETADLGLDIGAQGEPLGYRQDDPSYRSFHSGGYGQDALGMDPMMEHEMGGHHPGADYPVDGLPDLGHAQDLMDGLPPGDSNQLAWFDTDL
Kind of assay: Fluorescence polarization IC50 (beta-catenin / 5FAM-TCF4 10-53 competition). Format: binding. The note with it: fluorescence polarization. For orientation: Fluorescence polarisation rises when a labelled molecule tumbles more slowly, as on binding a larger partner.

The target in assay [2] is T2, beta-catenin/TCF4 engagement (Homo sapiens, UniProt P35222).
T2 construct: expressed in transfected cells; host or cells: HEK293
T2 sequence (P35222 1-781): T1 sequence (P35222 1-781)
Put plainly: Nano-BRET target engagement assay (B-cat-Halo & TCF4-Luc in HEK293 cells). Format: cell-based. (Bioluminescence resonance energy transfer reports proximity on the nanometre scale.)

Where two headings read alike, the source gives them in different places.

With `CC(=O)N1CCC[C@]12CC=CCCCC1(CCCC=CCCCOC(=O)N3CC[C@@](C(=O)N[C@@H](Cc4ccsc4)C(=O)N[C@@H](Cc4csc5ccccc45)C(=O)N[C@@H](C)C(N)=O)(C3)NC(=O)[C@H](CC(C)C)NC(=O)[C@H](Cc3ccccc3)NC(=O)[C@H](C)NC(=O)[C@H](CCCCN)NC(=O)[C@H](Cc3cccc(C(=O)O)c3)NC(=O)[C@H](CC(=O)O)NC1=O)NC(=O)[C@H](CC(C)(C)C)NC(=O)[C@H](CC(=O)O)NC2=O` (stereo partly drawn) [I-1917, Ac-PL3-Asp-Npg-B5-Asp-3COOHF-Lys-Ala-Phe-Leu-PyrS2-3Thi-BztA-Ala-NH2], the IC50 in assay [1] (read-out: beta-Catenin FP IC50) is 13 nM; in assay [2] (read-out: NanoBRET Abs IC50), 37.7 µM.
On the same counts, the results for `CCCC[C@@H]1NC(=O)[C@H](Cc2cccc(C(=O)O)c2)NC(=O)[C@H](CC(=O)O)NC(=O)C2(CCCC=CCCCOC(=O)N3CC[C@@](C(=O)N[C@@H](Cc4ccsc4)C(=O)N[C@@H](Cc4csc5ccccc45)C(=O)N[C@@H](C)C(N)=O)(C3)NC(=O)[C@H](CC(C)C)NC(=O)[C@H](Cc3ccccc3)NC(=O)[C@H](C)NC1=O)CCCC=CC[C@]1(CCCN1C(C)=O)C(=O)N[C@@H](CC(=O)O)C(=O)N[C@@H](CC(C)(C)C)C(=O)N2` (stereo partly drawn) [I-1919, Ac-PL3-Asp-Npg-B5-Asp-3COOHF-nLeu-Ala-Phe-Leu-PyrS2-3Thi-BztA-Ala-NH2] are 33 nM and 4.7 µM.
Take `CC(=O)N1CCC[C@]12CC=CCCCC1(CCCC=CCCCOC(=O)N3CC[C@@](C(=O)N[C@@H](Cc4cccc(C(N)=O)c4)C(=O)N[C@@H](Cc4csc5ccccc45)C(=O)N[C@@H](CCO)C(N)=O)(C3)NC(=O)[C@H](CC(N)=O)NC(=O)[C@H](Cc3ccccc3)NC(=O)[C@H](C)NC(=O)[C@H](CCCCNC(C)C)NC(=O)[C@H](CCC(N)=O)NC(=O)[C@H](CC(=O)O)NC1=O)NC(=O)[C@H](CC1CCCCC1)NC(=O)[C@H](CC(N)=O)NC2=O` (stereo partly drawn) [I-1929, Ac-PL3-Asn-Cha-B5-Asp-Gln-iPrLys-Ala-Phe-Asn-PyrS2-3cbmf-BztA-Hse-NH2]: the concentration for half-maximal inhibition (IC50) in assay [1] (read-out: beta-Catenin FP IC50) was 74 nM; in assay [2] (read-out: NanoBRET Abs IC50) it was above 20 µM.
On the same counts, the results for `CC(=O)N1CCC[C@]12CC=CCCCC1(CCCC=CCCCOC(=O)N3CC[C@@](C(=O)N[C@@H](Cc4ccsc4)C(=O)N[C@@H](Cc4csc5ccccc45)C(=O)N[C@@H](CCC(N)=O)C(N)=O)(C3)NC(=O)[C@H](CCC(=O)N3CCN(CC(F)(F)F)CC3)NC(=O)[C@H](Cc3ccccc3)NC(=O)[C@H](C)NC(=O)[C@H](C)NC(=O)[C@H](CN(CC(=O)O)CC(F)(F)F)NC(=O)[C@H](CC(=O)O)NC1=O)NC(=O)[C@H](CC(C)(C)C)NC(=O)[C@H](CC(=O)O)NC2=O` (stereo partly drawn) [I-1935, Ac-PL3-Asp-Npg-B5-Asp-TfeGA-Ala-Ala-Phe-[TfePpz]GlnR-PyrS2-3Thi-BztA-Gln-NH2] are 9 nM and 7.1 µM.
As for `CC(=O)N1CCC[C@]12CC=CCCCC1(CCCC=CCCCOC(=O)N3CC[C@@](C(=O)N[C@@H](Cc4ccsc4)C(=O)N[C@@H](Cc4csc5ccccc45)C(=O)N[C@@H](CCC(N)=O)C(N)=O)(C3)NC(=O)[C@H](CCC(=O)N3CCN(CCCN(C)C)CC3)NC(=O)[C@H](Cc3ccccc3)NC(=O)[C@H](C)NC(=O)[C@H](C)NC(=O)[C@H](CN(CC(=O)O)CC(F)(F)F)NC(=O)[C@H](CC(=O)O)NC1=O)NC(=O)[C@H](CC(C)(C)C)NC(=O)[C@H](CC(=O)O)NC2=O` (stereo partly drawn) [I-1936, Ac-PL3-Asp-Npg-B5-Asp-TfeGA-Ala-Ala-Phe-[Me2NPrPip]GlnR-PyrS2-3Thi-BztA-Gln-NH2], the IC50 in assay [1] (read-out: beta-Catenin FP IC50) turned out to be 10 nM; in assay [2] (read-out: NanoBRET Abs IC50), 15.7 µM.
As to `CC(=O)N1CCC[C@]12CC=CCCCC1(CCCC=CCCCOC(=O)N3CC[C@@](C(=O)N[C@@H](Cc4ccsc4)C(=O)N[C@@H](Cc4csc5ccccc45)C(=O)N[C@@H](CCC(N)=O)C(N)=O)(C3)NC(=O)[C@H](CCC(=O)N3CCN(c4ccncc4)CC3)NC(=O)[C@H](Cc3ccccc3)NC(=O)[C@H](C)NC(=O)[C@H](C)NC(=O)[C@H](CN(CC(=O)O)CC(F)(F)F)NC(=O)[C@H](CC(=O)O)NC1=O)NC(=O)[C@H](CC(C)(C)C)NC(=O)[C@H](CC(=O)O)NC2=O` (stereo partly drawn) [I-1938, Ac-PL3-Asp-Npg-B5-Asp-TfeGA-Ala-Ala-Phe-[4PyPip]GlnR-PyrS2-3Thi-BztA-Gln-NH2], the IC50 is 8 nM in assay [1] (beta-Catenin FP IC50 (nM)) and 30 µM in assay [2] (NanoBRET Abs IC50 (uM)).
`CC(=O)N1CCC[C@]12CC=CCCCC1(CCCC=CCCCOC(=O)N3CC[C@@](C(=O)N[C@@H](Cc4ccsc4)C(=O)N[C@@H](Cc4csc5ccccc45)C(=O)N[C@@H](CCC(N)=O)C(N)=O)(C3)NC(=O)[C@H](CCC(=O)N3CC[C@@H](N(C)C)C3)NC(=O)[C@H](Cc3ccccc3)NC(=O)[C@H](C)NC(=O)[C@H](C)NC(=O)[C@H](CN(CC(=O)O)CC(F)(F)F)NC(=O)[C@H](CC(=O)O)NC1=O)NC(=O)[C@H](CC(C)(C)C)NC(=O)[C@H](CC(=O)O)NC2=O` (stereo partly drawn) [I-1939, Ac-PL3-Asp-Npg-B5-Asp-TfeGA-Ala-Ala-Phe-[RDMAPyr]GlnR-PyrS2-3Thi-BztA-Gln-NH2]: the results for the IC50 in assay [1] (read-out: beta-Catenin FP IC50) and in assay [2] (read-out: NanoBRET Abs IC50) were 10 nM and 20.7 µM, respectively.
On the same counts, the results for `CC(=O)N1CCC[C@]12CC=CCCCC1(CCCC=CCCCOC(=O)N3CC[C@@](C(=O)N[C@@H](Cc4ccsc4)C(=O)N[C@@H](Cc4csc5ccccc45)C(=O)N[C@@H](CCC(N)=O)C(N)=O)(C3)NC(=O)[C@H](CCC(=O)N3CCC(N4CCCCC4)CC3)NC(=O)[C@H](Cc3ccccc3)NC(=O)[C@H](C)NC(=O)[C@H](C)NC(=O)[C@H](CN(CC(=O)O)CC(F)(F)F)NC(=O)[C@H](CC(=O)O)NC1=O)NC(=O)[C@H](CC(C)(C)C)NC(=O)[C@H](CC(=O)O)NC2=O` (stereo partly drawn) [I-1940, Ac-PL3-Asp-Npg-B5-Asp-TfeGA-Ala-Ala-Phe-[4Pippip]GlnR-PyrS2-3Thi-BztA-Gln-NH2] are 6 nM and 15.4 µM.
On the same counts, the results for `CC(=O)N1CCC[C@]12CC=CCCCC1(CCCC=CCCCOC(=O)N3CC[C@@](C(=O)N[C@@H](Cc4ccsc4)C(=O)N[C@@H](Cc4csc5ccccc45)C(=O)N[C@@H](CCC(N)=O)C(N)=O)(C3)NC(=O)[C@H](CCC(=O)N3CCNCC3)NC(=O)[C@H](Cc3ccccc3)NC(=O)[C@H](C)NC(=O)[C@H](C)NC(=O)[C@H](CN(CC(=O)O)CC(F)(F)F)NC(=O)[C@H](CC(=O)O)NC1=O)NC(=O)[C@H](CC(C)(C)C)NC(=O)[C@H](CC(=O)O)NC2=O` (stereo partly drawn) [I-1941, Ac-PL3-Asp-Npg-B5-Asp-TfeGA-Ala-Ala-Phe-[Ppz]GlnR-PyrS2-3Thi-BztA-Gln-NH2] are 6 nM and 12.9 µM.
On the same counts, the results for `CC(=O)N1CCC[C@]12CC=CCCCC1(CCCC=CCCCOC(=O)N3CC[C@@](C(=O)N[C@@H](Cc4ccsc4)C(=O)N[C@@H](Cc4csc5ccccc45)C(=O)N[C@@H](CCC(N)=O)C(N)=O)(C3)NC(=O)[C@H](CCC(=O)NCc3ccccc3)NC(=O)[C@H](Cc3ccccc3)NC(=O)[C@H](C)NC(=O)[C@H](C)NC(=O)[C@H](CN(CC(=O)O)CC(F)(F)F)NC(=O)[C@H](CC(=O)O)NC1=O)NC(=O)[C@H](CC(C)(C)C)NC(=O)[C@H](CC(=O)O)NC2=O` (stereo partly drawn) [I-1942, Ac-PL3-Asp-Npg-B5-Asp-TfeGA-Ala-Ala-Phe-[NHBn]GlnR-PyrS2-3Thi-BztA-Gln-NH2] are 11 nM and 7.9 µM.
